Experimental data: US11000491B2, “Amino-aryl-benzamide compounds and methods of use thereof” (HEPANOVA, INC., priority 2017, dated 2021)

Tests used:
adiponectin = test: Secreted adiponectin in differentiated 3T3-L1 cells by ELISA; format: cell-based; conditions: differentiated mouse 3T3-L1 cells
Method: Differentiated, mouse 3T3-L1 cells were treated with varying concentrations of HPN-01, and the level of secreted adiponectin measured by ELISA.

nSTZ+HFD NASH mice = test: Streptozotocin (STZ) and high fat diet-induced (nSTZ+HFD) NASH mice; format: in vivo, C57/BL6J mice; conditions: 5 or 15 mpk orally BID, 3 weeks
Method: FIG. 27. Design of study to test in vivo HPN-01 efficacy on streptozotocin (STZ) and high fat diet-induced (nSTZ+HFD) NASH mice.
The effect of HPN-01 on various physical and biochemical parameters in mice induced to develop NASH was tested. Briefly, newborn C57/BL6J mice were divided into 5 groups, with 8 animals per group. […] The remaining four groups were injected on days 2, 3 and 4, with Vehicle (Vehicle consists of 40% PEG400:10% Cremophor EL:50% water) containing 90 μg of streptozotocin (STZ), and fed a high fat diet (HFD) from week 4 through week 9 to establish NASH hallmarks in the liver. One of the groups (Vehicle group) that received STZ was not given any further drug treatment. The remaining three groups received either orally administered Telmisartan or orally administered HPN-01 starting at week 6 and continuing for 3 weeks. Telmisartan was orally administered once per day (QD) at a dosage of 10 mpk (mg/kg weight); this group served as a positive control. HPN-01 was administrated orally twice a day (BID) with either a lower (5 mpk) or a higher (15 mpk) dose. For each group, body weight and food intake were recorded daily.
At the end of the study, animals were fasted overnight, and fasted blood glucose levels measured and compared with a fasted glucose level obtained on Day 1 of the study.
Mice were then euthanized, and whole blood drawn by cardiac puncture. Sera were prepared and stored at −80° C. for alanine aminotransferase (ALT), aspartate aminotransferase (AST), triglyceride (TG) and total cholesterol (TC) detection. Livers were isolated and liver weights were recorded. Liver tissues were stored at −80° C. for TG, TC detection, measurement of various inflammatory and fibrotic markers, and pathological studies.
Liver tissues from various groups from the study shown in FIG. 27 were observed under a microscope following Hematoxylin and Eosin (H&E) stain and Oil-red-O staining, and an NAFLD activity score determined. Additional NAFLD/NASH pathology scores were also determined, including a hepatic steatosis score (FIG. 35B), a ballooning score (FIG. 35C) and an inflammation score (FIG. 35D).

DGAT1 = test: Lipogenic gene mRNA by real-time qPCR in Huh7 cells; format: cell-based; conditions: 1 μM, 24 h
Excerpt: (§1) FIG. 8. Inhibition of various lipogenic gene mRNA levels following treatment with HPN-01. […] Sterol regulatory element-binding protein-1 (SREBP-1); Sterol regulatory element-binding protein-2 (SREBP-2); Fatty acid synthase (FASN); Stearoyl-CoA-desaturase (SCD1); Acetyl-CoA carboxylase (ACC); Elongation of very long chain fatty acids fatty acid elongase 6 (ELOVL6); Low density liporeceptor (LDLR); Fatty acid desaturase 1 (FADS1); Diacylglycerol 0-Acyltransferase 1 (DGAT1); Diacylglycerol 0-Acyltransferase 2 (DGAT2).
(§2) Huh7 cells were treated with 1 μM of HPN-01 for 24 h, and the mRNA expression levels of various pivotal lipogenic enzymes were quantified by real-time qPCR. […] Folds of inhibition were as follows: SREBP-1: 2.98±0.23; SREBP-2: 4.01±0.31; FASN: 3.87±0.23; SCD1: 4.63±0.48; ACC: 4.12±0.34; ELOVL6: 2.84±0.22; LDLR: 3.02±0.11; FADS1: 3.06±0.17; DGAT1: 1.72±0.27; DGAT2: 3.77±0.45.

FADS1 = test: as above; format: cell-based; conditions: 1 μM, 24 h
Excerpt: as §1, §2

DGAT2 = test: as above; format: cell-based; conditions: 1 μM, 24 h
Excerpt: as §1, §2

FASN = test: as above; format: cell-based; conditions: 1 μM, 24 h
Excerpt: as §1, §2

ELOVL6 = test: as above; format: cell-based; conditions: 1 μM, 24 h
Excerpt: as §1, §2

LDLR = test: as above; format: cell-based; conditions: 1 μM, 24 h
Excerpt: as §1, §2

SREBP-1 = test: as above; format: cell-based; conditions: 1 μM, 24 h
Excerpt: as §1, §2

ACC = test: as above; format: cell-based; conditions: 1 μM, 24 h
Excerpt: as §1, §2

SCD1 = test: as above; format: cell-based; conditions: 1 μM, 24 h
Excerpt: as §1, §2

SREBP-2 [1] = test: as above; format: cell-based; conditions: 1 μM, 24 h
Excerpt: as §1, §2

SREBP-2 [2] = test: SREBP-2 expression in cultured primary human hepatocytes; format: cell-based; conditions: Hepatocyte
Method in brief: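 Primary human hepatocytes in culture exposed to a range of HPN-01 derivative concentrations; SREBP-1 and SREBP-2 mRNA expression then measured to assess inhibition.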

IC50 (adiponectin): 320 nM
Structure (SMILES): NC(=O)c1cc(-c2ccc(Cl)cc2)cc(-c2ccc(S(N)(=O)=O)cc2)c1N [HPN-01, 2-amino-3-(p-sulfonamidophenyl)-5-(p-chlorophenyl) benzamide]
body weight (nSTZ+HFD NASH mice): no effect
daily food intake (nSTZ+HFD NASH mice): no effect
fasted blood glucose levels (nSTZ+HFD NASH mice; Day-22 vs Day-1): no effect
elevation of hepatic TC (nSTZ+HFD NASH mice; dose-dependent): significantly reversed
elevation of hepatic TG (nSTZ+HFD NASH mice; dose-dependent): significantly reversed
elevation of serum ALT (nSTZ+HFD NASH mice; dose-dependent): significantly reversed
elevation of serum AST (nSTZ+HFD NASH mice; dose-dependent): significantly reversed
increase of serum total cholesterol (TC) (nSTZ+HFD NASH mice; dose-dependent): significantly abated
increase of serum triglyceride (TG) (nSTZ+HFD NASH mice; dose-dependent): significantly abated
liver COL1A1 level (nSTZ+HFD NASH mice; dose-dependent): reduced
liver MCP-1 mRNA (nSTZ+HFD NASH mice; dose-dependent): significantly suppressed
liver TGF-β1 level (nSTZ+HFD NASH mice; dose-dependent): reduced
liver TIMP-1 level (nSTZ+HFD NASH mice; dose-dependent): reduced
liver TNF-α mRNA (nSTZ+HFD NASH mice; dose-dependent): significantly suppressed
Folds of inhibition DGAT1 mRNA (DGAT1): 1.72±0.27 fold
Folds of inhibition FADS1 mRNA (FADS1): 3.06±0.17 fold
Folds of inhibition DGAT2 mRNA (DGAT2): 3.77±0.45 fold
Folds of inhibition FASN mRNA (FASN): 3.87±0.23 fold
Folds of inhibition ELOVL6 mRNA (ELOVL6): 2.84±0.22 fold
Folds of inhibition LDLR mRNA (LDLR): 3.02±0.11 fold
Folds of inhibition SREBP-1 mRNA (SREBP-1): 2.98±0.23 fold
Folds of inhibition ACC mRNA (ACC): 4.12±0.34 fold
Folds of inhibition SCD1 mRNA (SCD1): 4.63±0.48 fold
Folds of inhibition SREBP-2 mRNA (SREBP-2 [1]): 4.01±0.31 fold
IC50 (SREBP-2 [2]): 3430 nM
